Entries after “also recorded” stand apart in the source; their conditions may differ.
Assays:
[1] = test system: vsv-g pseudotyped HIV-1 virus; format: cell-based
HIV-1 (wt) virus = format: cell-based
Method: G11 HIV reporter cells (200K) were seeded in 5 ml falcon tubes (RPMI+10% FBS) and incubated with the indicated amounts of NSC129220 (CAS 10212-28-9) for one hour before infection with HIV-1 (wt) virus (250 ng). Samples were stained with propidium iodide and analyzed for GFP expression via flow cytometer at 48 and 72 hours post infection. (See FIG. 2).
Example FACS dot plots of live G11 cells expressing HIV induced expression of GFP. […] (See FIG. 27).

[2] = test system: vsv-g pseudotyped HIV-1 virus; format: cell-based; remark: listed apart in the source
HIV [3] = experiment: Inhibition of HIV replication in experimental T cell cancer lines; format: cell-based
HIV-1 (wt) = experiment: Inhibition of HIV replication in primary peripheral blood mononuclear cells (p24 ELISA); format: cell-based; details: Human immunodeficiency virus 1, PBMC, read-out: EC50, inhibition of HIV replication
Method: Human peripheral blood mononuclear cells (PBMCs) purified from donors were cultured (RPMI+10% FBS) and stimulated pre-infection (24 hrs) and every 3 days for three weeks with 2 ng/ml of phytoheaemagglutinin (PHA) and 1 U/ml IL-2. 24 hours following the initial stimulation the samples were incubated for one hour with the indicated amounts of NSC166641 and then infected with 300 ng HIV-1 (wt). Samples were analyzed via ELISA p24. (See FIG. 7).

[4] = biological target: T1, reverse transcriptase (RT) (Human immunodeficiency virus type 1 group M subtype B, UniProt P03366); experiment: Roche reverse transcriptase assay kit; format: biochemical; details: indicated amounts
T1 construct: Results of the Roche reverse transcriptase (AT) assay kit; purchased Roche
Method: Results of the Roche reverse transcriptase […] assay kit utilizing the indicated amounts of NSC166641. RT activity was measured as a percentage compared to the positive control. […] (See FIG. 9).

Human recombinant dCK = Human recombinant dCK (Homo sapiens, UniProt P27707); experiment: dCK inhibition curve with deoxyinosine as substrate; format: biochemical; details: deoxyinosine (dIR) substrate, duplicate
Chain of Human recombinant dCK (P27707 whole entry): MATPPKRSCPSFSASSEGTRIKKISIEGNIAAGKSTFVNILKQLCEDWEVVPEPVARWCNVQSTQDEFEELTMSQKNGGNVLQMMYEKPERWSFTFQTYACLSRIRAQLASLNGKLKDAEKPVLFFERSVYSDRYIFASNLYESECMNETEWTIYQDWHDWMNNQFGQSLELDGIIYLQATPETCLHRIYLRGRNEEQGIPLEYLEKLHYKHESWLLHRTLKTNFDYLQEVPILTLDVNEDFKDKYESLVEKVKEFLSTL
Method: Inhibiting the activity of the dCK enzyme is useful. […] Human recombinant dCK activity was characterized using deoxyinosine (dIR) as a substrate. Assays were performed in duplicate in 200 μL of reaction mixture (96-well plate). Reactions were started by adding dIR at various concentrations and the percent inhibition was determined as compared to the positive control via spectrophotometer. […] (See FIG. 35).

HIV [5] = experiment: EC50 stated in embodiments, test not specified; format: cell-based
[6] = in vivo; cited from earlier work
cells = details: cited from earlier work

COc1ccc2[nH]c3c(C)c4ccncc4c(C)c3c2c1 [methoxyellipticine, Methoxyellipticine]
anti-HIV activity in screen (luciferase expression) [1]: Anti-HIV activity was detected

CC(=O)O.N=c1ccn2c(n1)OC1C(O)C(CO)OC12 (centres unmarked) [NSC129220, O2,2′-cyclocytidine monoacetate]
dose-dependent activity (luciferase) [1]: Dose-dependent activity was detected | lowest dose at which anti-HIV activity was seen [1]: 40 µM | cell viability (HIV-1 (wt) virus; FACS GFP assay, treated reporter cells (FIG. 27)): > 60% | inhibition of HIV induced GFP expression (confirmation of screen) (HIV-1 (wt) virus; live G11 cells, FACS dot plots): inhibition of HIV | rescue of luciferase expression by deoxycytidine [2]: Addition of dC is able to rescue luciferase expression in treated cells

CCOC(N)=O [ethyl carbamate]
anti-HIV activity in screen (luciferase expression) [1]: Activity was not detected

Cc1cn([C@H]2C[C@H](N=[N+]=[N-])[C@@H](CO)O2)c(=O)[nH]c1=O [AZT, zidovudine]
dose dependent effect on Clone 64 cells [1]: dose dependent effect

O=C(O)c1ccccc1 [Benzoic acid]
anti-HIV activity in screen (luciferase expression) [1]: Activity was not detected

Cl.N=c1ccn2c(n1)O[C@H]1[C@H](O)[C@@H](CO)O[C@H]12 [O2,2′-cyclocytidine hydrochloride]
lowest dose at which anti-HIV activity was seen [1]: 40 µM

N=c1nc2n(cc1F)[C@@H]1O[C@H](CO)[C@@H](O)[C@@H]1O2 [AAFC, 5-fluoro-2,2′cyclocytidine]
dose dependent effect on Clone 64 cells [1]: dose dependent effect | dose-dependent activity (luciferase) [1]: Dose-dependent activity was detected | lowest dose at which anti-HIV activity was seen [1]: 40 µM | EC50 (HIV [3]; Human immunodeficiency virus 1, read-out: EC50, inhibition of HIV replication, experimental T cell cancer lines): < 500 nM | concentration directly inhibiting HIV replication in vitro (HIV [3]; a number of experimental cell lines and primary cells): < 500 nM | inhibition of HIV replication on post infection treatment (HIV [3]; post exposure of cells infected with HIV-1, experimental cell lines): dramatically inhibit HIV replication | EC50 (HIV-1 (wt)): < 0.7 nM | inhibition of RT activity vs positive control [4]: little or no inhibition of RT | IC50 (Human recombinant dCK): 32000 nM | rescue of luciferase expression by dC, dT or both [2]: addition of dC but not dT may be able to rescue luciferase expression in treated cells | rescue of luciferase expression by deoxycytidine [2]: Addition of dC appears to be able to rescue luciferase expression in treated cells; also recorded: Addition of dC is able to rescue luciferase expression in treated cells | EC50 (HIV [5]; Human immunodeficiency virus 1, another aspect of embodiments, read-out: EC50): ~10 nM | EC50 (HIV [5]; Human immunodeficiency virus 1, one aspect of embodiments): ~0.7 nM | fraction of reagent passed through the body unchanged [6]: over 80% | phosphorylation compared to Ara-C [6]: less easily phosphorylated as compared to Ara-C | reversal of cell growth inhibition by nucleosides (cells): reversed by deoxycytidine but not by thymidine and deoxyuridine | thymidine incorporation (cells): inhibited thymidine incorporation into the acid-soluble fraction (DNA) of the cells

c1ccc2ccccc2c1 [napthalen]
anti-HIV activity in screen (luciferase expression) [1]: Activity was not detected

O=C1CN=C(c2ccc[nH]2)c2cc(Cl)ccc2N1 [benzodiazipen, Benzodiazepen]
anti-HIV activity in screen (luciferase expression) [1]: Anti-HIV activity was detected

From patent US20130303479A1, “Antiretroviral Cyclonucleoside Compositions and Methods and Articles of Title of Invention Manufacture Therewith” (priority 2011, published 2013)
